Test [1] relates to IL-8 secretion in THP-1 cells. The experiment in a line: IL-8 secretion in TNF-α-stimulated THP-1 cells (ELISA). Type of test: cell-based, human. To be noted: THP-1, TNF-α 10 ng/mL, 6 hours. As for the experimental part:
For comparison, BTZ (6 nM), CFZ (1 nM), and DEX (2 μM) were also included. *** is p<0.001, which denotes a significant difference from the TNF-α-only group, determined by a Dunnett's test. The values presented are the mean±SEM (n=3).
(§1) The enzyme-linked immunosorbent assay (ELISA) is a quantitative measurement based on sandwich-based enzyme linking, using a protein-specific capture antibody to determine the levels of single or multiple chemokines and cytokines.
The data in FIG. 12 show the levels of IL-8 secreted in the THP-1 culture medium in response to TNF-α alone (10 ng/mL) or in combination with varying concentrations (0.5, 1.0, 2, 4 or 6 μM) of VR23. For comparison, BTZ (6 nM), CFZ (1 nM) and DEX (2 μM) were also included. The measurement time was 6-hour post-stimulation. The measurement was carried out with a single-analyte ELISA.

Test [2] relates to CQ-resistant P. falciparum ItG. The experiment in a line: Anti-parasitic assay (SYBR Green I), ItG strain. The class given is cell-based. The settings on record: Plasmodium falciparum, 48 h. As for the experimental part:
The CQ-resistant P. falciparum ItG and the CQ-sensitive 3D7 strains were maintained and assays carried out as described previously^25. Briefly, P. falciparum strains were maintained in RPMI 1640 culture medium supplemented with 10% human serum, 25 mM HEPES, gentamicin, and 50 μM of hypoxanthine. The anti-parasitic assay was carried out as described previously^25. Briefly, a compound gradient was generated across a 96-well assay plate; a constant number of parasites added in 50 μL of the culture medium; allowed to grow for 48 hours; and followed by the measurement of DNA amounts (i.e., fluorescence) using SYBR Green I. The IC50 value is the 50% point between alive and dead for which a three-parameter fit was used.
VR23 is a derivative of CQ; a well-known anti-malarial drug. […] ItG and […] P. falciparum strains are CQ-resistant and CQ-sensitive strains, respectively. IC50 values were calculated by S.E.M (Table 2).

Test [3] relates to HFLS-RA cell migration. The experiment in a line: Cell migration assay (matrigel invasion chamber), HFLS-RA. Type of test: cell-based, human. To be noted: 24 hours, 5 μM or 10 μM. As for the experimental part: (§2) The values presented are the mean±SEM (n=2).
Cell migration assays were performed with Corning invasion chambers with Matrigel matrix (Fisher Scientific). The lower chamber contained compounds (e.g., VR23 or HCQ) and FBS as a chemo-attractant. The upper chamber was loaded with cells in FBS-free medium. The analysis of the trans-well inserts were carried out as described previously^24. After 24 hours of incubation, the trans-well inserts were removed, and then the remaining media and cells on the upper chamber were also removed from the top of the membrane with a cotton swab. The trans-well inserts were placed into wells containing 1 mL of 70% ethanol for 10 minutes to fix the cells. The residual ethanol was carefully removed with a cotton swab. Cells on the trans-well insert membrane were then air-dried at room temperature for 15 minutes. The trans-well insert containing cells were placed in 1 mL of 0.2% crystal violet for 10 minutes to stain. The excessive crystal violet was carefully removed from the membrane with a cotton swab. Subsequently, cells on the trans-well membrane were air-dried at room temperature prior to analysis under an inverted microscope. Images (10×) were captured at 5 different fields. The average number of cells that migrated through the membrane towards the chemo-attractant were determined. […]

In test [4] the test system is IL-6 and TNF-α secretion in human PBMC. The experiment in a line: IL-6 and TNF-α in PHA-p-stimulated human PBMC (ELISA). The class given is cell-based. To be noted: PHA-p 10 μg/mL, 6 hours. The protocol: as §2, §1
Data in FIG. 14 show the levels of IL-6 (upper plot) and TNF-α (lower plot) in human PBMC (1×10^6/mL cells) stimulated with 10 μg/mL phytohemagglutinin-p (PHA-p) (10 μg/mL) for 6 hours, in the absence (control) or presence of varying concentrations of VR23 (0.38, 0.75, 1.5, 3 or 6 μM) or BTZ (6.25, 12.5, 25 or 50 nM). The measurement was carried out with a single-analyte ELISA.
(In general: In an ELISA, binding on a coated surface is turned into a signal by an enzyme label.)

The subject of test [5] is IL-1β, TNF-α, IL-6 and IL-8 secretion in THP-1 cells. The experiment in a line: Cytokine secretion in LPS-stimulated THP-1 cells (ELISA). Type of test: cell-based, human. To be noted: THP-1, LPS 5 μg/mL, 6 hours. As for the experimental part:
For comparison, BTZ (6 nM), CFZ (1 nM), and DEX (2 μM) were also included. *, **, and *** are p<0.05, p<0.01, and p<0.001, respectively, which denote a significant difference from the LPS-only group. The mean±SEM (n=3) values were determined by a Dunnett's test.
as §1
Data shown in FIG. 11 are the results of experiments carried out to investigate VR23's effect on the levels of inflammatory cytokines. […] For comparison, BTZ (6 nM), CFZ (1 nM) and DEX (2 μM) were also included. The levels of cytokine secreted in cell culture supernatants were measured by a single-analyte ELISA. The IC50 value of VR23 is 3 μM and the concentrations of BTZ, CFZ and DEX used are their respective IC50 values.

Test [6] concerns SW-982 synovial cell line. The experiment in a line: Sulforhodamine B (SRB) assay, IC50 on SW-982 cells. Type of test: cell-based. The settings on record: Homo sapiens, SW982, 48 h. The protocol:
The sulforhodamine B (SRB) assay^21 was used to determine the drug concentration that half of the cell growth/viability is inhibited (IC50). Cells were cultured in 96-well plates, with 5,000 cells in 100 μL of culture medium per well. The rest of the protocol was the same as described previously^22,23.
Data shown in Table 1 are IC50 values of VR23 and other compounds, which were determined using sulforhodamine B (SRB) assays on immunologically relevant cells (THP-1, SW-982 and PBMC). […] Two well-known proteasome inhibitors, BTZ and CFZ, were included for comparison since VR23 is also a proteasome inhibitor, albeit targeting different subunits^2. The widely used anti-inflammatory DEX was included, also for comparison.
THP-1, SW982 and PBMC cells (5,000 cells/well) were treated with each compound for 48 hours. The IC50, the drug concentration reducing cell growth/viability by 50%, was determined by a dose-response four-parameter curve (generated with GraphPad Prism V. 4.02) formed by 10 two-fold dilutions (n=3).
For orientation: Sulforhodamine B stains cellular protein and so reports cell mass.

What is called IC50 is the concentration that inhibits the measured activity by half.

Each structure is given as a SMILES string.

`O=[N+]([O-])c1ccc(S(=O)(=O)N2CCN(c3ccnc4cc(Cl)ccc34)CC2)c([N+](=O)[O-])c1` [VR23, 7-chloro-4-(4-(2,4-dinitrophenylsulfonyl)piperazin-1-yl)quinoline]: the “level of IL-8” value in test [1] (0.5 μM) is recorded as “significantly (p<0.001) reduced the level of IL-8”. In test [1] (VR23 at IC50 concentration (between 2 and 4 μM), BTZ 6 nM, CFZ 1 nM), the IL-8 secretion result is “effectively reduces IL-8 secretion”. Further, the IC50 was 0.117 µM in test [2] and 4.33 ± 0.7 µM in test [6]. In addition, the “cell migration promoted by 10% FBS” value in test [3] was “completely prevents cell migration”. In addition, the “PHA-induced IL-6” value in test [4] (VR23 1.5 μM, BTZ 6 nM) is “completely prevented”. The “PHA-induced TNF-α” value in test [4] (VR23 3.0 μM, BTZ 4× the IC50 dose) is given as “completely prevented”. Moreover, the “cytokine secretion (IL-6, TNF-α), dose dependence” value in test [4] (VR23 0.38-6 μM) is “decreases in a dose dependent manner”. Besides, in test [5], the “level of IL-6 in response to LPS” value is reported as “especially effective on reducing the level of IL-6”. Further, the “cytokine secretion, dose dependence” value in test [5] (VR23 0.5, 1.0, 2, 3, 4 or 6 μM) is reported as “decreased cytokine secretion in a dose dependent manner”. Besides, the “levels of inflammatory cytokines IL-1β, TNF-α, IL-6, IL-8” value in test [5] (VR23 0.5-6 μM, BTZ 6 nM, CFZ 1 nM, DEX 2 μM) was “substantial and comparable anti-inflammatory activities”.

The values above are taken from US11357774B2, “Use of a quinoline sulfonyl compound for treatment of inflammation, inflammatory disorders, autoimmune disorders and malaria” (priority 2019, dated 2022).
